Results: ChEMBL document CHEMBL5291721, “A preclinical secondary pharmacology resource illuminates target-adverse drug reaction associations of marketed drugs” (Nat Commun, 2023)

What was measured:
[1] = target: cGMP-inhibited 3',5'-cyclic phosphodiesterase 3A (Homo sapiens, UniProt Q14432); assay type: functional
[2] = target: T1, Adenosine receptor A1 (Homo sapiens, UniProt P30542)
T1 sequence (P30542 whole entry): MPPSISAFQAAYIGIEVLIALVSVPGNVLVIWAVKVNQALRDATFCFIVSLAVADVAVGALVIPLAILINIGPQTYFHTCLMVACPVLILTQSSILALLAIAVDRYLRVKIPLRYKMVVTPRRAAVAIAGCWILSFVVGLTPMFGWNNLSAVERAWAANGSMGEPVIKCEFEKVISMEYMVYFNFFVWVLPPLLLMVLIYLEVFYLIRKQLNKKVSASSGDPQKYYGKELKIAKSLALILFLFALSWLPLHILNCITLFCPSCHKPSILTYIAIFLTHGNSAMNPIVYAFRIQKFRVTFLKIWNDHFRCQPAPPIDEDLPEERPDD

[3] = target: T2, Alpha-2A adrenergic receptor (Homo sapiens, UniProt P08913); assay type: functional, cell-based
T2 sequence (P08913 whole entry): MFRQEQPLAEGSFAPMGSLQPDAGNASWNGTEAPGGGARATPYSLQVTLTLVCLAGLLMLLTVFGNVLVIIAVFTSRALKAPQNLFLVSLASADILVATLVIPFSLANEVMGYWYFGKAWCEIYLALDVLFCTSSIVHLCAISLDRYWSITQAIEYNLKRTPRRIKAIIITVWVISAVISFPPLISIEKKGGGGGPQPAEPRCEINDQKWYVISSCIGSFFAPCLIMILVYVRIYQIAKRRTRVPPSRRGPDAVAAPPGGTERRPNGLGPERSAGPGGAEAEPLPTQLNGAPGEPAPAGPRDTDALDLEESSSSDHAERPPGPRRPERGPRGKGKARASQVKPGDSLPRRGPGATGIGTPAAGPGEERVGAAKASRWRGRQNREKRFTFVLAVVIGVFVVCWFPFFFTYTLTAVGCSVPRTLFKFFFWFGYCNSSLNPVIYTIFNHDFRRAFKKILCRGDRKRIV

[4] = target: Melanocortin receptor 3 (Homo sapiens, UniProt P41968)
[5] = target: T3, 5-hydroxytryptamine receptor 1A (Homo sapiens, UniProt P08908); assay type: functional, cell-based
T3 sequence (P08908 whole entry): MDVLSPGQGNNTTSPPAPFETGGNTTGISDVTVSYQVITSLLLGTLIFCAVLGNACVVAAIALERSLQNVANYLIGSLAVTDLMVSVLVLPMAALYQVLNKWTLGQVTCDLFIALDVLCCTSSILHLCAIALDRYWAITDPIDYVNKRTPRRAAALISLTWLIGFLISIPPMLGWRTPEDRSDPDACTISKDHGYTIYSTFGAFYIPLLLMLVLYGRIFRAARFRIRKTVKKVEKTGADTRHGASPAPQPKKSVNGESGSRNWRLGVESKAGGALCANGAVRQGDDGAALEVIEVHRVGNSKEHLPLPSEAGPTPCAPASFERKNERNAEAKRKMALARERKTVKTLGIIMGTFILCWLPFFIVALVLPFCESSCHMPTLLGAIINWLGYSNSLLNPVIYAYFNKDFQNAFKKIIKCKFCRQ

[6] = target: T4, Adenosine receptor A3 (Homo sapiens, UniProt P0DMS8)
T4 sequence (P0DMS8 whole entry): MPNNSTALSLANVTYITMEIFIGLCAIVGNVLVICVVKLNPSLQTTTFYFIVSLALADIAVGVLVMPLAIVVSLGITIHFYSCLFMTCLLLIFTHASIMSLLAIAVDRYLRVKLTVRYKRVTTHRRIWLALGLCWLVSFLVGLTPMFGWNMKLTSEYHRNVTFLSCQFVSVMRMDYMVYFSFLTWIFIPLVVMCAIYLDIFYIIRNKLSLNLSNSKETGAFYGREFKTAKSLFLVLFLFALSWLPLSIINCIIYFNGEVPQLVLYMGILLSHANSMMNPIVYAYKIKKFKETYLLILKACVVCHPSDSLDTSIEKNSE

[7] = target: D(1A) dopamine receptor (Homo sapiens, UniProt P21728); assay type: functional, cell-based
[8] = target: T5, Muscarinic acetylcholine receptor M1 (Homo sapiens, UniProt P11229); assay type: functional
T5 sequence (P11229 whole entry): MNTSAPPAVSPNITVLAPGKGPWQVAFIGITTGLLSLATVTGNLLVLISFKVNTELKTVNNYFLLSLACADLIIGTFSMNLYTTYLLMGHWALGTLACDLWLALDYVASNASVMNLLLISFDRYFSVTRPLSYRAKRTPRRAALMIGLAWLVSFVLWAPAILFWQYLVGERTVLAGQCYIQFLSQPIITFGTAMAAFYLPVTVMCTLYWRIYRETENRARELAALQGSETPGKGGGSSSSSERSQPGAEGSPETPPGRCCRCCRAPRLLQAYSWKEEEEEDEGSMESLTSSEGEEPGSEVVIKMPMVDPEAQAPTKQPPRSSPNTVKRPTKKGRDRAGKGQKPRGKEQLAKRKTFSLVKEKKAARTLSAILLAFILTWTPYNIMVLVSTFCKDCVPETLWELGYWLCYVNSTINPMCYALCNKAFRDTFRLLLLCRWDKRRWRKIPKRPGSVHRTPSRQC
Further: assay procedure not described here.

D(1A) dopamine receptor, sequence (P21728 whole entry): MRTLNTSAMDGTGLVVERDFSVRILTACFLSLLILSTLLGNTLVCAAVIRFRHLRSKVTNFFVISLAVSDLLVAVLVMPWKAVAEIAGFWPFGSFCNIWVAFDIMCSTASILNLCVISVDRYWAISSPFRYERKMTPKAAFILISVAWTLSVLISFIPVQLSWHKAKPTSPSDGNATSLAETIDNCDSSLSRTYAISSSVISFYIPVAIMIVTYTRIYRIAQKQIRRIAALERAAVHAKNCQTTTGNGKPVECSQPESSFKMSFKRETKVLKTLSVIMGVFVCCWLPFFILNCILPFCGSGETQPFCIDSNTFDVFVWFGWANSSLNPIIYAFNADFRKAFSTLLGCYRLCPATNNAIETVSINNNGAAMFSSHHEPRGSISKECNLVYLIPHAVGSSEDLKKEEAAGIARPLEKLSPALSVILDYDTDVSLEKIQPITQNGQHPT
Melanocortin receptor 3, sequence (P41968 whole entry): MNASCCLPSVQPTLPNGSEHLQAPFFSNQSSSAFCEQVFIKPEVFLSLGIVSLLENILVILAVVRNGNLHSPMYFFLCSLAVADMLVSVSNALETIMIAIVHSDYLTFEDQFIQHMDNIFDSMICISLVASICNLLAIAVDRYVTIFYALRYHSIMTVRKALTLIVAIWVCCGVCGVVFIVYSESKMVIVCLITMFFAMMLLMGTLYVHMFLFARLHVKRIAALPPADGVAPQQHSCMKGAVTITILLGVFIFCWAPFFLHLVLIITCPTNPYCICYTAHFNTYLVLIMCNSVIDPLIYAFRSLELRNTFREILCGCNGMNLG
cGMP-inhibited 3',5'-cyclic phosphodiesterase 3A, sequence (Q14432 whole entry): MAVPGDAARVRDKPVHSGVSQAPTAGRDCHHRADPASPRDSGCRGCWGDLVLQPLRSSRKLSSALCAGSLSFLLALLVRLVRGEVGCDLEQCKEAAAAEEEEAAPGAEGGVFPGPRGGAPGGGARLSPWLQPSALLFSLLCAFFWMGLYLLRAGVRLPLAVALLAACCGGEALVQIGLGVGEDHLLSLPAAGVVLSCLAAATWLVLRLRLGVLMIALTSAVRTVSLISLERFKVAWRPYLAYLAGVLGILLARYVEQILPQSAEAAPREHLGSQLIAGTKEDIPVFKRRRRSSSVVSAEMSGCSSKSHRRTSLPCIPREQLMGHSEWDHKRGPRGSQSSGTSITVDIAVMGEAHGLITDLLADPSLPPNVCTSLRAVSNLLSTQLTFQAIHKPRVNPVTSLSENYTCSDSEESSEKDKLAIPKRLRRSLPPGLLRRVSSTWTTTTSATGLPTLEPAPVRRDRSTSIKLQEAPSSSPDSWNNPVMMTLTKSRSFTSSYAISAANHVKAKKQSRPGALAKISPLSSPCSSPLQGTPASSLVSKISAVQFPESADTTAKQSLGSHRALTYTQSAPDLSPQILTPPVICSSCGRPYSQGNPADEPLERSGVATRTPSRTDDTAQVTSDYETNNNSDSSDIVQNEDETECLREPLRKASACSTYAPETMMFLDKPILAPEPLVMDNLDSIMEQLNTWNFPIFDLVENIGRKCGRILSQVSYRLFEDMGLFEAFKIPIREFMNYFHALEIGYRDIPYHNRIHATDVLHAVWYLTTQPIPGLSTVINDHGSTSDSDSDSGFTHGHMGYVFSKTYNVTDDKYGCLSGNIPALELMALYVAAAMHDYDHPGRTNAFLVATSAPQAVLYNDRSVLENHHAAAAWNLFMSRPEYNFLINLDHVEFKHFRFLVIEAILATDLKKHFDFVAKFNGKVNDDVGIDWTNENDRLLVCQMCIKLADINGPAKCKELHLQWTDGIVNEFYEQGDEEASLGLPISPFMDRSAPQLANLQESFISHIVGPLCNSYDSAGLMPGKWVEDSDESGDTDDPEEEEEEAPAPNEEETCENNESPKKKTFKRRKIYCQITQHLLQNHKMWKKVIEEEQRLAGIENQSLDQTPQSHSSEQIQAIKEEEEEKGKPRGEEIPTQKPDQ

Structure (SMILES) | AC50 [1] | AC50 [2] | AC50 [3] | AC50 [4] | AC50 [5] | AC50 [6] | AC50 [7] | AC50 [8]
C=CC1=C(C(=O)O)N2C(=O)[C@@H](NC(=O)/C(=N\OCC(=O)O)c3csc(N)n3)[C@H]2SC1 [CEFIXIME] | > 30 µM | > 30 µM | > 30 µM | > 30 µM | > 30 µM | > 30 µM | > 30 µM | > 30 µM
NS(=O)(=O)c1cc2c(cc1C(F)(F)F)NC(Cc1ccccc1)NS2(=O)=O (centres undefined) [BENDROFLUMETHIAZIDE] | > 30 µM | > 10 µM | > 10 µM | > 10 µM | > 10 µM | > 10 µM | > 10 µM | > 10 µM
O=C1CN=C(c2ccccc2)c2cc(Cl)ccc2N1 [NORDAZEPAM] | > 30 µM | > 30 µM | > 10 µM | > 30 µM | > 10 µM | > 30 µM | > 10 µM | > 10 µM
